In patent publication US20210032257A1, “(E)-1-(4-(DIMETHYLAMINO)BUT-2-ENOYL)PYRROLIDIN-3-YL 4-((3-ISOPROPYL-5-METHYLPYRAZOLO[1,5-A]PYRIMIDIN-7-YL)AMINO)PIPERIDINE-1-CARBOXYLATE FOR INHIBITING CDK7” (Eli Lilly and Company, priority 2017, published 2021):

Columns and labels:
Test in all cases: Biomarker study proliferation (CellTiter-Glo)
Type in all cases: cell-based
SNU869 = tested on: SNU869
Procedure, shortened: (§1)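 IC50 and % inhibition define three classes: insensitive at IC50≥1 μM; cytostatic at IC50<1 μM with <70% inhibition; cytotoxic at IC50<1 μM with ≥70% inhibition. Values come from 7-day CellTiter-Glo readings.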

NCIH1155 = tested on: NCIH1155
Procedure, shortened: as §1

KE97 = tested on: KE97
Procedure, shortened: as §1

NUGC4 = tested on: NUGC4
Procedure, shortened: as §1

HEC1A = tested on: HEC1A
Procedure, shortened: as §1

IMR32 = tested on: IMR32
Procedure, shortened: as §1

HLE = tested on: HLE
Procedure, shortened: as §1

COV318 = conditions: COV318, OVARY, 7 days
Procedure, shortened: as §1

KYSE30 = tested on: KYSE30
Procedure, shortened: as §1

MKN74 = tested on: MKN74
Procedure, shortened: as §1

SKMEL28 = tested on: SKMEL28
Procedure, shortened: as §1

NCIH596 = tested on: NCIH596
Procedure, shortened: as §1

NCIH358 = tested on: NCIH358
Procedure, shortened: as §1

HL60 = tested on: HL60
Procedure, shortened: as §1

HCC44 = tested on: HCC44
Procedure, shortened: as §1

K562 = tested on: K562
Procedure, shortened: as §1

SNU387 = tested on: SNU387
Procedure, shortened: as §1

KLE = tested on: KLE
Procedure, shortened: as §1

[1] = 168 h, read-out: Anti-proliferation effect IC50
[2] = Homo sapiens, 168 h, read-out: Anti-proliferation effect IC50

Cc1cc(NC2CCN(C(=O)O[C@H]3CCN(C(=O)/C=C/CN(C)C)C3)CC2)n2ncc(C(C)C)c2n1 [Example 1, [(3S)-1-[(E)-4-(dimethylamino)but-2-enoyl]pyrrolidin-3-yl] 4-[(3-isopropyl-5-methyl-pyrazolo[1,5-a]pyrimidin-7-yl)amino]piperidine-1-carboxylate]
IC50 (SNU869; [1]): 52 nM
Anti-proliferation effect % Inh. (SNU869; SNU869, BILIARY, 7 days): 60%
Anti-proliferation effect Outcome (SNU869; SNU869, BILIARY, 7 days): Cytostatic (cytostatic (IC50<1 μM and % inhibition <70%))
IC50 (NCIH1155; Homo sapiens, NCI-H1155, 168 h, read-out: Anti-proliferation effect IC50): 43 nM
Anti-proliferation effect % Inh. (NCIH1155; NCIH1155, LUNG, 7 days): 51%
Anti-proliferation effect Outcome (NCIH1155; NCIH1155, LUNG, 7 days): Cytostatic (cytostatic (IC50<1 μM and % inhibition <70%))
Anti-proliferation effect % Inh. (KE97; KE97, BLOOD, 7 days): 58%
Anti-proliferation effect Outcome (KE97; KE97, BLOOD, 7 days): Cytostatic (cytostatic (IC50<1 μM and % inhibition <70%))
IC50 (KE97; KE-97, 168 h, read-out: Anti-proliferation effect IC50): 158 nM
IC50 (NUGC4; Homo sapiens, NUGC-4, 168 h, read-out: Anti-proliferation effect IC50): 19 nM
Anti-proliferation effect % Inh. (NUGC4; NUGC4, STOMACH, 7 days): 83%
Anti-proliferation effect Outcome (NUGC4; NUGC4, STOMACH, 7 days): Cytotoxic (cytotoxic (IC50<1 μM and % inhibition ≥70%))
Anti-proliferation effect % Inh. (HEC1A; HEC1A, ENDOMETRIUM, 7 days): 56%
Anti-proliferation effect Outcome (HEC1A; HEC1A, ENDOMETRIUM, 7 days): Cytostatic (cytostatic (IC50<1 μM and % inhibition <70%))
IC50 (HEC1A; Homo sapiens, HEC-1-A, 168 h, read-out: Anti-proliferation effect IC50): 162 nM
IC50 (IMR32; Homo sapiens, IMR-32, 168 h, read-out: Anti-proliferation effect IC50): 2 nM
Anti-proliferation effect % Inh. (IMR32; IMR32, CNS, 7 days): 100%
Anti-proliferation effect Outcome (IMR32; IMR32, CNS, 7 days): Cytotoxic (cytotoxic (IC50<1 μM and % inhibition ≥70%))
IC50 (HLE; [2]): 30 nM
Anti-proliferation effect % Inh. (HLE; LIVER, 7 days): 77%
Anti-proliferation effect Outcome (HLE; LIVER, 7 days): Cytotoxic (cytotoxic (IC50<1 μM and % inhibition ≥70%))
IC50 (COV318; [1]): > 10000 nM
Anti-proliferation effect % Inh. (COV318): 40%
IC50 (KYSE30; Homo sapiens, KYSE-30, 168 h, read-out: Anti-proliferation effect IC50): 76 nM
Anti-proliferation effect % Inh. (KYSE30; KYSE30, OESOPHAGUS, 7 days): 76%
Anti-proliferation effect Outcome (KYSE30; KYSE30, OESOPHAGUS, 7 days): Cytotoxic (cytotoxic (IC50<1 μM and % inhibition ≥70%))
IC50 (MKN74; Homo sapiens, MKN-74, 168 h, read-out: Anti-proliferation effect IC50): 73 nM
Anti-proliferation effect % Inh. (MKN74; MKN74, STOMACH, 7 days): 71%
Anti-proliferation effect Outcome (MKN74; MKN74, STOMACH, 7 days): Cytotoxic (cytotoxic (IC50<1 μM and % inhibition ≥70%))
IC50 (SKMEL28; Homo sapiens, SK-MEL-28, 168 h, read-out: Anti-proliferation effect IC50): 98 nM
Anti-proliferation effect % Inh. (SKMEL28; SKMEL28, SKIN, 7 days): 61%
Anti-proliferation effect Outcome (SKMEL28; SKMEL28, SKIN, 7 days): Cytostatic (cytostatic (IC50<1 μM and % inhibition <70%))
IC50 (NCIH596; Homo sapiens, NCI-H596, 168 h, read-out: Anti-proliferation effect IC50): 922 nM
Anti-proliferation effect % Inh. (NCIH596; NCIH596, LUNG, 7 days): 46%
Anti-proliferation effect Outcome (NCIH596; NCIH596, LUNG, 7 days): Cytostatic (cytostatic (IC50<1 μM and % inhibition <70%))
IC50 (NCIH358; Homo sapiens, NCI-H358, 168 h, read-out: Anti-proliferation effect IC50): 42 nM
Anti-proliferation effect % Inh. (NCIH358; NCIH358, LUNG, 7 days): 93%
Anti-proliferation effect Outcome (NCIH358; NCIH358, LUNG, 7 days): Cytotoxic (cytotoxic (IC50<1 μM and % inhibition ≥70%))
Anti-proliferation effect % Inh. (HL60; HL60, BLOOD, 7 days): 87%
Anti-proliferation effect Outcome (HL60; HL60, BLOOD, 7 days): Cytotoxic (cytotoxic (IC50<1 μM and % inhibition ≥70%))
IC50 (HL60; Homo sapiens, HL-60, 168 h, read-out: Anti-proliferation effect IC50): 45 nM
Anti-proliferation effect % Inh. (HCC44; HCC44, LUNG, 7 days): 48%
Anti-proliferation effect Outcome (HCC44; HCC44, LUNG, 7 days): Cytostatic (cytostatic (IC50<1 μM and % inhibition <70%))
IC50 (HCC44; Homo sapiens, HCC44, 168 h, read-out: Anti-proliferation effect IC50): 131 nM
IC50 (K562; Homo sapiens, K562, 168 h, read-out: Anti-proliferation effect IC50): > 10000 nM
Anti-proliferation effect % Inh. (K562; K562, BLOOD, 7 days): −191%
Anti-proliferation effect Outcome (K562; K562, BLOOD, 7 days): Insensitive (insensitive (IC50≥1 μM))
IC50 (SNU387; Homo sapiens, SNU-387, 168 h, read-out: Anti-proliferation effect IC50): > 10000 nM
Anti-proliferation effect % Inh. (SNU387; SNU387, LIVER, 7 days): 12%
Anti-proliferation effect Outcome (SNU387; SNU387, LIVER, 7 days): Insensitive (insensitive (IC50≥1 μM))
Anti-proliferation effect % Inh. (KLE; ENDOMETRIUM, 7 days): 65%
Anti-proliferation effect Outcome (KLE; ENDOMETRIUM, 7 days): Cytostatic (cytostatic (IC50<1 μM and % inhibition <70%))
IC50 (KLE; [2]): 28 nM
